In article PMC9726829, “Structures and mechanism of chitin synthase and its inhibition by antifungal drug Nikkomycin Z” (Cell Discovery, 2022):

Legend:
[1] = molecular target: T1, S. cerevisiae Chs1 (Saccharomyces cerevisiae, UniProt P08004); test: in vitro chitin synthase activity assay; cryo-EM structure of the complex at […] A also solved; assay type: biochemical
T1 construct: expressed and purified membrane protein, homodimer; residues numbered to 1131; residues 1-377, 699-703, 897-907, 1076-1084 not resolved
T1 sequence (P08004 1-1131): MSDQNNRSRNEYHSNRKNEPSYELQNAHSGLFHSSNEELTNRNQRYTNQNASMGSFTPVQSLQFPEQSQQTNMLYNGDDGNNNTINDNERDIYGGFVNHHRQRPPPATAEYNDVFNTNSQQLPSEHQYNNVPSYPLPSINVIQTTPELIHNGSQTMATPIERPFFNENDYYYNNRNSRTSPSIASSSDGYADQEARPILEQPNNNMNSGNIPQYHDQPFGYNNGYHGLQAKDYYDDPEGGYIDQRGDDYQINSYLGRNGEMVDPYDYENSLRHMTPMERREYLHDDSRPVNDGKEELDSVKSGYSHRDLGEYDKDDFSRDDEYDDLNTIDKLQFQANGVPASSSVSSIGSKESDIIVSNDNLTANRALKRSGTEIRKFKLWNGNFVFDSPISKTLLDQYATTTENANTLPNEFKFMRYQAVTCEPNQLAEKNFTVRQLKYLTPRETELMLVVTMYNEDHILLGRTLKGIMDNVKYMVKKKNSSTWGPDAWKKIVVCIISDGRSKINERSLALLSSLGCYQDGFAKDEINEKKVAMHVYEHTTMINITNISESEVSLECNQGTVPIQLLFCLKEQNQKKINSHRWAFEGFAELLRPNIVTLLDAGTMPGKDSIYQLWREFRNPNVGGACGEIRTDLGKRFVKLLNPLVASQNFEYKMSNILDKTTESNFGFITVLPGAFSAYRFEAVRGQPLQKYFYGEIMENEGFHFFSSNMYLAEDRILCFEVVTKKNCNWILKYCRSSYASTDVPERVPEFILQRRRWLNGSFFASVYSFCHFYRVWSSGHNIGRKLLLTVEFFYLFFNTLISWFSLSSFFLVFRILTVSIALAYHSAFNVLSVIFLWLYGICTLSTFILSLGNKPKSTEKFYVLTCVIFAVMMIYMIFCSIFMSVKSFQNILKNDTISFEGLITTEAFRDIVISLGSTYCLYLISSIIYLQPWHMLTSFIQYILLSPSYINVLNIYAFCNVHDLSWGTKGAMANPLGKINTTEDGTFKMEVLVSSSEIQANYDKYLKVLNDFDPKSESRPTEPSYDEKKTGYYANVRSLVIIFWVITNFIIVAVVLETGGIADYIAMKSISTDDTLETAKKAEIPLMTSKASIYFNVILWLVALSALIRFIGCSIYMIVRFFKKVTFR

[2] = molecular target: T1, S. cerevisiae Chs1; test: in vitro chitin synthase activity assay; assay type: biochemical; settings: activator; UDP-GlcNAc as donor substrate
[3] = molecular target: the molecule itself; test: cryo-EM structure; purified Chs1 in complex with Nikkomycin Z (NikZ), in detergent micelle; 2.9 Å, imposed C2 symmetry

## C[C@@H]([C@H](N)C(=O)N[C@H](C(=O)O)[C@H]1O[C@@H](n2ccc(=O)[nH]c2=O)[C@H](O)[C@@H]1O)[C@H](O)c1ccc(O)cn1 [Nikkomycin Z]
[1]
  IC50: 367 nM

## CC(=O)N[C@H]1C(O)O[C@H](CO)[C@@H](O)[C@@H]1O (stereo partly drawn) [N-acetylglucosamine]
[2]
  in vitro chitin synthase activity assay: Chs1 activity can be significantly stimulated by GlcNAc

B1: S. cerevisiae chitin synthase Chs1 (enzyme)
chain: T1 sequence (P08004 1-1131)
notes: Chitin synthase 1 (Chs1) of S. cerevisiae; residues 1-377, 699-703, 897-907 and 1076-1084 are not resolved in the map; Homodimer; source: expressed and purified
[3]
  stoichiometry N: 2
